Measured values from ChEMBL document CHEMBL1201862, “PubChem BioAssay data set” (2004).
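Method: 48-hour compound exposure of cells in 96-well plates, five concentrations, linear interpolation of endpoints. The concentration for 50% growth inhibition is given as GI50.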 The source made the active and inactive calls. Rule as the data show it: active = GI50 up to about 1.1 µM and inactive = higher.

How the values were obtained:
Assay in all cases: inhibition of tumour cell growth, NCI panel, 48 h
[1] = test system: ACHN
[2] = test system: 786-0
[3] = test system: NCI-H460
[4] = test system: SNB-19
[5] = test system: EKVX
[6] = test system: NCI-H226
[7] = test system: HCT-116
[8] = test system: MOLT-4
[9] = test system: SN12C
[10] = test system: UO-31
[11] = test system: IGROV-1
[12] = test system: HCC 2998
[13] = test system: UACC-62
[14] = test system: Malme-3M
[15] = test system: SR
[16] = test system: SK-OV-3
[17] = test system: SK-MEL-2

Measured: GI50

Nc1nc(-c2ccccc2)cc(-c2ccccc2O)n1
inactive: [1] 27.2 µM | [2] 48.6 µM | [3] 36.2 µM | [4] 68.9 µM | [5] 23.7 µM | [6] 19 µM | [7] 20.7 µM | [8] 25.1 µM | [9] 37.8 µM | [10] 8.15 µM | [11] 49.4 µM | [12] 40.7 µM | [13] 59.2 µM | [14] > 100 µM | [15] 30.3 µM | [16] 85.9 µM

CCc1ccccc1NC(=O)/C(=N/O)C(C)=O
inactive: [1] > 100 µM | [2] > 100 µM | [3] > 100 µM | [4] > 100 µM | [5] > 100 µM | [17] > 100 µM | [6] 62.1 µM | [7] > 100 µM | [8] > 100 µM | [9] 96.8 µM | [10] > 100 µM | [11] > 100 µM | [12] > 100 µM | [13] > 100 µM | [14] > 100 µM | [16] > 100 µM

O=C(Cc1nc2ccccc2s1)C(=O)Nc1cccc(Cl)c1
inactive: [1] > 100 µM | [2] > 100 µM | [4] > 100 µM | [5] > 100 µM | [17] > 100 µM | [6] > 100 µM | [7] > 100 µM | [9] > 100 µM | [10] > 100 µM | [11] > 100 µM | [12] > 100 µM | [13] > 100 µM | [14] > 100 µM | [16] > 100 µM

COc1cc(CCCC(O)COc2cccc3c2C2(O)CCCCCC32)cc(OC)c1 (centres undefined)
inactive: [1] 15.7 µM | [2] 15.1 µM | [3] 17.6 µM | [4] 17.8 µM | [5] 16 µM | [17] 20.7 µM | [6] 16.2 µM | [7] 17.7 µM | [8] 17.7 µM | [9] 17.2 µM | [10] 15.4 µM | [11] 15.2 µM | [12] 4.97 µM | [13] 16.4 µM | [14] 16 µM | [16] 23.1 µM

Cc1nc2sccn2c1C(=O)NC(=O)Nc1ccc(Cl)cc1
inactive: [1] > 100 µM | [2] 48.2 µM | [3] > 100 µM | [4] 42.2 µM | [5] > 100 µM | [17] > 100 µM | [6] 71.9 µM | [7] 46.2 µM | [8] > 100 µM | [9] > 100 µM | [10] 59.2 µM | [11] > 100 µM | [12] > 100 µM | [13] > 100 µM | [14] > 100 µM

CN(CN1C(=O)C2Cc3ccccc3CN2C1=O)c1ccccn1 (centres undefined)
inactive: [1] > 100 µM | [2] > 100 µM | [3] > 100 µM | [4] > 100 µM | [17] > 100 µM | [6] > 100 µM | [8] > 100 µM | [9] > 100 µM | [10] > 100 µM | [11] > 100 µM | [12] > 100 µM | [13] > 100 µM | [14] > 100 µM | [15] > 100 µM

N=C(c1ccccc1)N(c1ccccc1)c1ccccc1
inactive: [2] 28.1 µM | [3] 87.5 µM | [4] > 100 µM | [5] 93.3 µM | [17] > 100 µM | [6] 23.1 µM | [7] 40.5 µM | [9] 22.5 µM | [10] 68.5 µM | [12] > 100 µM | [14] 23.4 µM | [15] 30.7 µM

O=CC1=CCCC2(C1)OCCO2
inactive: [2] > 100 µM | [3] > 100 µM | [4] > 100 µM | [5] > 100 µM | [17] > 100 µM | [7] > 100 µM | [9] > 100 µM | [10] > 100 µM | [11] > 100 µM | [12] > 100 µM | [13] > 100 µM | [14] > 100 µM | [16] > 100 µM

N#CC(C(=O)/C(=N/NC(=O)c1ccccc1O)C(C#N)c1ccc(Br)cc1)c1ccc(Br)cc1 (centres undefined)
inactive: [1] 13.7 µM | [2] 12.7 µM | [3] 14.2 µM | [4] 11.6 µM | [5] 15.6 µM | [17] 12.2 µM | [6] 5.52 µM | [7] 12.9 µM | [8] 3.93 µM | [9] 9.12 µM | [10] 13.3 µM | [11] 15.7 µM | [12] 12.1 µM | [13] 6.71 µM | [14] 11.9 µM | [16] 36.8 µM

Cc1cccc(-c2nnc3s/c(=C\c4ccc5c(c4)OCO5)c(=O)n23)c1
inactive: [1] > 100 µM | [2] > 100 µM | [3] > 100 µM | [4] > 100 µM | [5] > 100 µM | [17] > 100 µM | [6] > 100 µM | [7] > 100 µM | [8] > 100 µM | [9] > 100 µM | [10] > 100 µM | [11] > 100 µM | [12] > 100 µM | [13] > 100 µM | [14] > 100 µM | [16] > 100 µM

COc1ccccc1NC(=O)CC(=O)N1N=C(c2ccccc2)C(/N=N/c2ccc(Cl)cc2)C1=O (centres undefined)
inactive: [1] 19.2 µM | [2] 13.9 µM | [3] 34.8 µM | [4] 36 µM | [5] 37.2 µM | [17] 69.7 µM | [6] 27.5 µM | [7] 30.1 µM | [8] 41.1 µM | [9] 68.1 µM | [10] 18.2 µM | [11] 29.9 µM | [12] 45.6 µM | [13] 25.7 µM | [15] 55.1 µM | [16] 21.9 µM

NC(=O)C(c1ccccc1)N1CCOCC1 (centres undefined)
inactive: [1] > 100 µM | [2] > 100 µM | [3] > 100 µM | [17] > 100 µM | [6] > 100 µM | [7] > 100 µM | [8] > 100 µM | [9] > 100 µM | [10] > 100 µM | [11] > 100 µM | [13] > 100 µM | [14] > 100 µM | [15] > 100 µM | [16] > 100 µM

Nc1c2ccccc2nc2c(C(=O)Nc3ccc(S(N)(=O)=O)cc3)cccc12
inactive: [1] > 100 µM | [2] > 100 µM | [3] > 100 µM | [4] 92.3 µM | [5] > 100 µM | [17] > 100 µM | [6] 84.3 µM | [7] 67.5 µM | [8] 11.1 µM | [9] > 100 µM | [10] 46.3 µM | [11] > 100 µM | [12] > 100 µM | [13] 97.5 µM | [14] 74 µM | [16] > 100 µM
